For 23 molecules, EC50 results are on record in patent US20240166652A1, “MODULATORS OF THE INTEGRATED STRESS PATHWAY” (Calico Life Sciences LLC, priority 2017, published 2024).

What is called pEC50 is −log10 of the EC50, conventionally taken in molar units.

The assay concerns ATF4 luciferase reporter in HEK293T cells. In words: ATF4-Luc assay (ATF4 luciferase reporter, tunicamycin-treated HEK293T cells). The format is cell-based, human. The following applies: Homo sapiens, HEK-293T; HEK293T cells carrying the ATF4 luciferase reporter, 1 μg/mL tunicamycin, 7 hours. On the technique in general: Reporter assays use an easily measured gene product as a stand-in for the process of interest.

The structures appear in SMILES notation. pEC50: −log10 of the molar value.

Turning to `O=C(COc1ccc(Cl)c(F)c1)NC12CC(NC(=O)COc3cnc(Cl)c(F)c3)(C1)C2` [Compound 227, 2-(4-chloro-3-fluorophenoxy)-N-(3-{2-[(6-chloro-5-fluoropyridin-3-yl)oxy]acetamido}bicyclo[1.1.1]pentan-1-yl)acetamide], the pEC50 was over 8.00.
Next, `O=C(COc1cccc(C(F)(F)F)n1)NC12CCC(NC(=O)COc3ccc(Cl)c(F)c3)(CC1)[C@@H](O)C2` [Compound 824, 2-(4-chloro-3-fluorophenoxy)-N-[(2S)-2-hydroxy-4-(2-{[6-(trifluoromethyl)pyridin-2-yl]oxy}acetamido)bicyclo[2.2.2]octan-1-yl]acetamide]: 7.30 to 8.00.
On to `Cc1ccc(OCC(=O)NC23CCC(NC(=O)COc4ccc(F)cc4)(CC2)[C@@H](O)C3)cc1F` [Compound 731, 2-(3-fluoro-4-methylphenoxy)-N-{(3S)-4-[2-(4-fluorophenoxy)acetamido]-3-hydroxybicyclo[2.2.2]octan-1-yl}acetamide], for which the negative logarithm of the EC50 (pEC50) was over 8.00.
Next, `Cc1ccc(CCOCC(=O)NC23CC(NC(=O)COc4ccc(Cl)c(F)c4)(C2)C3)cc1` [Compound 137, 2-(4-chloro-3-fluorophenoxy)-N-(3-{2-[2-(4-methylphenyl)ethoxy]acetamido}-bicyclo[1.1.1]pentan-1-yl)acetamide]: 5.70 to 6.30; `O=C(COc1ccc(Cl)c(F)c1)NC12CCC(NC(=O)Cc3ccc4c(c3)OCO4)(CC1)C(O)C2` (centres unmarked) [Compound 323, 2-(2H-1,3-benzodioxol-5-yl)-N-{4-[2-(4-chloro-3-fluorophenoxy)acetamido]-2-hydroxybicyclo[2.2.2]octan-1-yl}acetamide]: under 5.70.
Regarding `Cc1ccc(OCC(=O)NC23CC(NC(=O)COc4ccc(Cl)cc4)(C2)C3)cc1` [Compound 115, 2-(4-chlorophenoxy)-N-{3-[2-(4-methylphenoxy)acetamido]bicyclo-[1.1.1]pentan-1-yl}acetamide], the pEC50 is 6.60 to 7.30.
For the molecule `O=C(COc1ccc(Cl)c(F)c1)NC12CC(NS(=O)(=O)Cc3ccccc3)(C1)C2` [Compound 479, 2-(4-chloro-3-fluorophenoxy)-N-{3-[(phenylmethanesulfonyl)amino]bicyclo[1.1.1]pentan-1-yl]acetamide], the negative logarithm of the EC50 (pEC50) was under 5.70.
For the molecule `O=C(COc1ccc(OC(F)(F)F)cc1)NC12CC(NC(=O)COc3ccc(Cl)c(F)c3)(C1)C2` [Compound 393, 2-(4-chloro-3-fluorophenoxy)-N-(3-{2-[4-(trifluoromethoxy)phenoxy]acetamido}bicyclo[1.1.1]pentan-1-yl)acetamide], the pEC50 was over 8.00.
For `O=C(COc1ccc(F)c(C(F)(F)F)c1)NC12CCC(NC(=O)COc3ccc(F)c(F)c3)(CC1)[C@@H](O)C2` [Compound 845, 2-(3,4-difluorophenoxy)-N-[(2S)-4-{2-[4-fluoro-3-(trifluoromethyl)phenoxy]acetamido}-2-hydroxybicyclo[2.2.2]octan-1-yl]acetamide], the negative logarithm of the EC50 (pEC50) was over 8.00.
The result for `O=C(COc1ccc(Cl)c(F)c1)NC12CCC(NC(=O)COc3ccc(Cl)c(F)c3)(CC1)C2` [Compound 440, N,N′-(bicyclo[2.2.1]heptane-1,4-diyl)bis[2-(4-chloro-3-fluorophenoxy)acetamide]] reads over 8.00; that for `CN(C(=O)COc1ccc(Cl)c(Cl)c1)C12CC(NC(=O)COc3ccc(Cl)c(Cl)c3)(C1)C2` [Compound 198, 2-(3,4-dichlorophenoxy)-N-{3-[2-(3,4-dichlorophenoxy)acetamido]-bicyclo[1.1.1]pentan-1-yl}-N-methylacetamide], 6.60 to 7.30.
Consider `COCC1CC2(NC(=O)COc3ccc(Cl)c(F)c3)CCC1(NC(=O)COc1ccc(Cl)c(F)c1)CC2` (centres unmarked) [Compound 716, N,N′-[2-(methoxymethyl)bicyclo[2.2.2]octane-1,4-diyl]bis[2-(4-chloro-3-fluorophenoxy)acetamide]], for which the pEC50 is 7.30 to 8.00.
Next, `Cc1cccc(COCC(=O)NC23CC(NC(=O)COc4ccc(Cl)c(F)c4)(C2)C3)n1` [Compound 128, 2-(4-chloro-3-fluorophenoxy)-N-(3-{2-[(6-methylpyridin-2-yl)methoxy]acetamido}bicyclo[1.1.1]pentan-1-yl)acetamide]: 5.70 to 6.30.
Next, `O=C(COc1ccc(Cl)c(F)c1)NC12CCC(NC(=O)COc3ccnc(C(F)(F)F)c3)(CC1)[C@@H](O)C2` (single isomer, unassigned) [Compound 319]: over 8.00; `CS(=O)(=O)c1ccc(OCC(=O)NC23CCC(NC(=O)COc4ccc(Cl)c(F)c4)(CC2)C[C@@H]3O)cc1` [Compound 504, 2-(4-chloro-3-fluorophenoxy)-N-[(3S)-3-hydroxy-4-{2-[4-(methanesulfonyl)phenoxy]acetamido}bicyclo[2.2.2]octan-1-yl] acetamide]: 6.60 to 7.30.
With `O=C(COc1ccc(Cl)cc1)NC12CCC(NC(=O)COc3ccc(F)c(Cl)c3)(CC1)CC2` [Compound 743, 2-(3-chloro-4-fluorophenoxy)-N-{4-[2-(4-chlorophenoxy)acetamido]bicyclo[2.2.2]octan-1-yl}acetamide], the pEC50 was over 8.00.
As for `COc1ncc(OCC(=O)NC23CC(NC(=O)COc4ccc(Cl)c(F)c4)(C2)C3)cc1C` [Compound 253, 2-(4-chloro-3-fluorophenoxy)-N-(3-{2-[(6-methoxy-5-methylpyridin-3-yl)oxy]acetamido}bicyclo[1.1.1]pentan-1-yl)acetamide], the pEC50 is 7.30 to 8.00.
For `O=C(COc1ccc(F)c(F)c1)NC12CCC(NC(=O)COc3ccc(OC(F)F)c(F)c3)(CC1)[C@@H](O)C2` [Compound 803, 2-[4-(difluoromethoxy)-3-fluorophenoxy]-N-{(2S)-4-[2-(3,4-difluorophenoxy)acetamido]-2-hydroxybicyclo[2.2.2]octan-1-yl}acetamide], the pEC50 is over 8.00.
For the molecule `O=C(COc1ccc(F)c(F)c1)NC12CC(NC(=O)COc3ccc(Cl)c(F)c3)(C1)C2` [Compound 183, 2-(4-chloro-3-fluorophenoxy)-N-{3-[2-(3,4-difluorophenoxy)acetamido]-bicyclo[1.1.1]pentan-1-yl}acetamide], the pEC50 was over 8.00.
Next, `O=C(COc1ccc(Cl)c(F)c1)NC12CC(NC(=O)COc3cnc4ccoc4c3)(C1)C2` [Compound 255, 2-(4-chloro-3-fluorophenoxy)-N-(3-{2-[(furo[3,2-b]pyridin-6-yl)oxy]acetamido}bicyclo[1.1.1]pentan-1-yl)acetamide]: 6.60 to 7.30; `O=C(COc1ccc(S(F)(F)(F)(F)F)nc1)NC12CC(NC(=O)COc3ccc(Cl)c(F)c3)(C1)C2` [Compound 332, 2-(4-chloro-3-fluorophenoxy)-N-[3-(2-{[6-(pentafluoro-X 6-sulfanyl)pyridin-3-yl]oxy}acetamido)bicyclo[1.1.1]pentan-1-yl]acetamide]: 7.30 to 8.00.
As for `O=C(COc1ccc(Cl)c(F)c1)NC12CC(NC(=O)[C@H](O)CCc3ccccc3)(C1)C2` [Compound 462, (2R)-N-{3-[2-(4-chloro-3-fluorophenoxy)acetamido]bicyclo[1.1.1]pentan-1-yl}-2-hydroxy-4-phenylbutanamide], the pEC50 was under 5.70.
For the molecule `O=C(COc1ccc(C(F)(F)F)c(F)c1)NC12CCC(NC(=O)COc3ccc(Cl)c(F)c3)(CC1)[C@@H](O)C2` [Compound 849, 2-(4-chloro-3-fluorophenoxy)-N-[(2S)-4-{2-[3-fluoro-4-(trifluoromethyl)phenoxy]acetamido}-2-hydroxybicyclo[2.2.2]octan-1-yl]acetamide], the pEC50 was over 8.00.
